Among the data in patent publication US6800637B2, “Antidepressant indolealkyl derivatives of heterocycle-fused benzodioxan methylamines” (Wyeth, priority 2002, dated 2004) are IC50, Emax and Ki values, retold here.

Experiment [1] has as its target T1, cloned human 5HT1A receptors (Homo sapiens, UniProt P08908).
T1 construct: expressed in transfected cells
T1 sequence (P08908 1-422): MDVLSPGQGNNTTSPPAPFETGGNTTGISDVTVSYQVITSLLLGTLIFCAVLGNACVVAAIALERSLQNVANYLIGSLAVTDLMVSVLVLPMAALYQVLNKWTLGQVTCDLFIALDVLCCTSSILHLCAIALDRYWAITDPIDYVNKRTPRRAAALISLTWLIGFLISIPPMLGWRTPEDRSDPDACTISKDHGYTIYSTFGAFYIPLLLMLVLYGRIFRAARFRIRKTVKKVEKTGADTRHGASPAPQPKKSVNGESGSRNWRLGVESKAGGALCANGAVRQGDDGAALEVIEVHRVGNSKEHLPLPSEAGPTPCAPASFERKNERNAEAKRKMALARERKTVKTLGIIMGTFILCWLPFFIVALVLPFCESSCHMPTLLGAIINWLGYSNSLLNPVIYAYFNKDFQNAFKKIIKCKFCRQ
The experiment can be described thus: 35S-GTPγS binding assay, membranes containing cloned human 5HT1A receptors. It is filed as biochemical. As to conditions: for IC50: antagonist potency, reversal of the effects of the standard agonist 8-OHDPAT, read-out: 5-HT1A Function IC50; for Emax: maximum inhibitory effect, read-out: 5-HT1A Function (Imax). How it is done: Antagonist activity at 5-HT1A receptors was established by using a ^35S-GTPγS binding assay similar to that used by Lazareno and Birdsall (Br. J. Pharmacol. 109: 1120, 1993), in which the test compound's ability to affect the binding of ^35S-GTPγS to membranes containing cloned human 5HT1A receptors was determined. Agonists produce an increase in binding whereas antagonists produce no increase but rather reverse the effects of the standard agonist 8-OHDPAT. The test compound's maximum inhibitory effect is represented as the Imax, while its potency is defined by the IC50.

The next experiment concerns the target T2, serotonin transporter (Rattus norvegicus, UniProt P31652).
T2 construct: displace ^3H-paroxetine from male rat frontal cortical membranes; from tissue; host or cells: male rat frontal cortex membranes
The experiment can be described thus: Displacement of 3H-paroxetine from male rat frontal cortical membranes (serotonin transporter affinity). The experiment is classed as binding. As to conditions: read-out: 5-HT Transporter Affinity KI.

For a further experiment, the target named is T3, human 5-HT1A receptors (Homo sapiens, UniProt P08908).
T3 construct: expressed in transfected cells; host or cells: CHO cells
T3 sequence (P08908 1-422): T1 sequence (P08908 1-422)
The experiment can be described thus: Displacement of [3H] 8-OHDPAT from 5-HT1A receptor, CHO cells stably transfected with human 5-HT1A receptors. The experiment is classed as binding. The conditions noted are these: CHO cells with human 5-HT1A receptors, read-out: 5-HT1A Receptor Affinity KI. The source says:
High affinity for the serotonin 5-HT1A receptor was established by testing the claimed compound's ability to displace [^3H] 8-OHDPAT (dipropylaminotetralin) from the 5-HT1A serotonin receptor following a modification of the procedure of Hall et al., J. Neurochem. 44, 1685 (1985) which utilizes CHO cells stably transfected with human 5-HT1A receptors.

T2 sequence (P31652 whole entry): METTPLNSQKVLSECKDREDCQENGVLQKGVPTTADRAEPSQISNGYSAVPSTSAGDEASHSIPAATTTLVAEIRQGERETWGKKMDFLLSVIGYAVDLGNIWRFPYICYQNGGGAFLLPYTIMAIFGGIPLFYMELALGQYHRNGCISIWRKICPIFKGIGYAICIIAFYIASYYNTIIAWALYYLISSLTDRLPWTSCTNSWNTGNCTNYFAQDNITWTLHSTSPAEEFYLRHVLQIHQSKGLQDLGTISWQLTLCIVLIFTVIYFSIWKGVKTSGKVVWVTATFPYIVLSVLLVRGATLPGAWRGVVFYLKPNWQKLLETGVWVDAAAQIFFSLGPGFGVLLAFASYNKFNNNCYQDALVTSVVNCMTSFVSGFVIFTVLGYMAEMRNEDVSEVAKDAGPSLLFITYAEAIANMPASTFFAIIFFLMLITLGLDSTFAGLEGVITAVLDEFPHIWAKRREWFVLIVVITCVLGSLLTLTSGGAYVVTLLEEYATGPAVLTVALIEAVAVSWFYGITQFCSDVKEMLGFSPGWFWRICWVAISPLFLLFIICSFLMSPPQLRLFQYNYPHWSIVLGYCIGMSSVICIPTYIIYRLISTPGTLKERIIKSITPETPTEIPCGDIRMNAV

As to `Cc1ccc2c3c(ccc2n1)OCC(CNCCCc1cn(C)c2c(F)cc(F)cc12)O3` (centres unmarked) [Example 26, N-[3-(5,7-Difluoro-1-methyl-1H-indol-3-yl)propyl]-N-(8-methyl-2,3-dihydro-[1,4]dioxino[2,3-f]quinolin-2-ylmethyl)amine], the IC50 in experiment [1] came to 180 nM. The Emax in experiment [1] was 90.2%. The Ki on serotonin transporter was determined as 5.9 nM; at human 5-HT1A receptors, 3.26 nM.
For the molecule `Cc1ccc2c3c(ccc2n1)OCC(CNCCCCn1ccc2ccc(F)cc21)O3` (centres unmarked) [Example 38, [4-(6-Fluoro-indol-1-yl)-butyl]-(8-methyl-2,3-dihydro-[1,4]dioxino[2,3-f]quinolin-2-ylmethyl)-amine], in experiment [1], the IC50 was found to be 25.8 nM and the Emax stood at 85.5%. On serotonin transporter, the Ki turned out to be 1.31 nM. For the same molecule, on human 5-HT1A receptors, the Ki worked out at 0.06 nM.
In the case of `Cc1ccc2c3c(ccc2n1)OCC(CNCCCCc1c[nH]c2ccccc12)O3` (centres unmarked) [Example 9, N-[4-(1H-indol-3-yl)butyl]-N-(8-methyl-2,3-dihydro-[1,4]dioxino[2,3-f]quinolin-2-ylmethyl)amine], the IC50 in experiment [1] stood at 23.7 nM. In experiment [1], the Emax was determined as 95.2%. Besides, the Ki on serotonin transporter worked out at 4.7 nM; on human 5-HT1A receptors, 0.46 nM.
Taken in the same sequence, the figures for `CCc1ccc2c3c(ccc2n1)OCC(CNCCCc1c[nH]c2ccc(F)cc12)O3` (centres unmarked) [Example 5, N-[3-(5-Fluoro-1H-Indol-3-yl)propyl]-N-(8-ethyl-2,3-dihydro-[1,4]dioxino[2,3-f]quinolin-2-ylmethyl)amine] were 92.5 nM, 76.8%, 0.96 nM and 0.64 nM.
Taken in the same sequence, the figures for `Cc1nc2ccc3c(c2o1)OC(CN(C)CCCc1c[nH]c2ccc(F)cc12)CO3` (centres unmarked) [Example 24, N-[3-(5-Fluoro-1H-indol-3-yl)propyl]-N-methyl-N-(2-methyl-7,8-dihydro[1,4]dioxino[2,3-g][1,3]benzoxazol-8-ylmethyl)amine] were 157 nM, 100%, 1.4 nM and 4.45 nM.
On to `Cc1ccc2c3c(ccc2n1)OCC(CNCCCCc1cn(C)c2ccc(F)cc12)O3` (centres unmarked) [Example 35, [4-(5-Fluoro-1-methyl-1H-indol-3-yl)-butyl]-(8-methyl-2,3-dihydro-[1,4]dioxino[2,3-f]quinolin-2-ylmethyl)-amine], for which, in experiment [1], the IC50 was found to be 66.6 nM and the Emax turned out to be 78.9%. The Ki on serotonin transporter is 2.4 nM. The Ki on human 5-HT1A receptors stood at 0.56 nM.
Turning to `Cc1ccc2c3c(ccc2n1)OCC(CN(C)CCCc1cn(C)c2c(F)cc(F)cc12)O3` (centres unmarked) [Example 27, N-[3-(5,7-Difluoro-1-methyl-1H-indol-3-yl)propyl]-N-methyl-N-(8-methyl-2,3-dihydro-[1,4]dioxino[2,3-f]quinolin-2-ylmethyl)amine], the IC50 in experiment [1] worked out at 341 nM. The Emax in experiment [1] came to 100%. Further, the Ki was 6.7 nM at serotonin transporter and 52.9 nM at human 5-HT1A receptors.
As for `Cc1ccc2c3c(ccc2n1)OC[C@H](CNCCc1c[nH]c2ccc(Cl)cc12)O3` [Example 2], in experiment [1], the IC50 was 49.4 nM and the Emax was determined as 37%. Besides, at serotonin transporter, the Ki turned out to be 34 nM. The Ki on human 5-HT1A receptors came to 19.9 nM.
As for `Cc1nc2ccc3c(c2o1)O[C@@H](CN(C)CCCc1c[nH]c2ccc(C#N)cc12)CO3` [Example 31, 3-{3-[M thyl-(2-methyl-7,8-dihydro-[1,4]dioxino[2,3[-g][1,3]benzoxazol-8-ylmethyl)-amino]-propyl)}-1H-indole-5-carbonitrile], in experiment [1], the IC50 worked out at 205 nM and the Emax was found to be 97.7%. Further, on serotonin transporter, the inhibition constant (Ki) worked out at 2.4 nM. On human 5-HT1A receptors, the Ki was 35.3 nM.
As for `Cc1nc2ccc3c(c2o1)O[C@@H](CNCCCc1c[nH]c2ccc(C#N)cc12)CO3` [Example 30, 3-{3-[(2-Methyl-7,8-dihydro-[1,4]dioxino[2,3-g][1,3]benzoxazol-8-ylmethyl)amino]-propyl}-1H-indole-5-carbanitrile], in experiment [1], the IC50 amounted to 68 nM and the Emax is 73.1%. The Ki on serotonin transporter was 1.8 nM. The Ki on human 5-HT1A receptors is 5.35 nM.
As for `Cc1ccc2c3c(ccc2n1)OCC(CNCCc1c[nH]c2ccc(F)cc12)O3` (centres unmarked) [Example 4, N-[2-(5-Fluoro-1H-indol-3-yl)ethyl]-N-(8-methyl-2,3-dihydro-[1,4]dioxino[2,3-f]quinolin-2-ylmethyl)amine], in experiment [1], the IC50 was found to be 909 nM and the Emax came out at 58%. In addition, the Ki at serotonin transporter stood at 47 nM. The Ki on human 5-HT1A receptors worked out at 4.19 nM.
For the molecule `Cc1ccc2c3c(ccc2n1)OC[C@H](CNCCc1coc2ccccc12)O3` [Example 17], the IC50 in experiment [1] is 52 nM. Moreover, in experiment [1], the Emax worked out at 78%. Besides, the Ki on serotonin transporter was determined as 46 nM; on human 5-HT1A receptors, 0.63 nM.
Taken in the same sequence, the figures for `Cc1ccc2c3c(ccc2n1)OC[C@H](CN(C)CCCn1ccc2c(F)cccc21)O3` [Example 48] were 500 nM, 100%, 4.2 nM and 24.7 nM.
Taken in the same sequence, the figures for `Cc1ccc2c3c(ccc2n1)OC[C@H](CNCCCc1cn(C)c2ccc(C#N)cc12)O3` [Example 37, 1-Methyl-3-{3-[(8-methyl-2,3-dihydro-[1,4]dioxino[2,3-f]quinolin-2-ylmethyl)-amino]-proyl}-1H-indole-5-carbonitrile] were 21.4 nM, 100%, 2.6 nM and 1.12 nM.
Regarding `Cc1ccc2c3c(ccc2n1)OC[C@H](CNCCCc1c[nH]c2ccc(F)cc12)O3` [Example 3, N-[3-(5-Fluoro-1H-Indolyl-3-yl)propyl]-N-(8-methyl-2,3-dihydro-[1,4]dioxino[2,3-f]quinolin-2-ylmethyl)amine], in experiment [1], the IC50 stood at 10.6 nM and the Emax was 98.7%. For the same molecule, the Ki at serotonin transporter turned out to be 0.41 nM. In addition, the Ki at human 5-HT1A receptors was found to be 0.27 nM.
With `CN(CCCc1c[nH]c2ccc(F)cc12)CC1COc2ccc3ncccc3c2O1` (centres unmarked) [Example 15, N-(2,3-Dihydro-[1,4]dioxino[2,3-f]quinolin-2-ylmethyl)-N-[3-(5-fluoro-1H-indol-3-yl)propyl]-N-methylamine], in experiment [1], the IC50 amounted to 412 nM and the Emax is 100%. On serotonin transporter, the Ki is 1.6 nM. For the same molecule, the Ki on human 5-HT1A receptors is 5.16 nM.
For `Cc1ccc2c3c(ccc2n1)OCC(CN(C)CCCCc1cn(C)c2ccc(F)cc12)O3` (centres unmarked) [Example 44, [4-(5-Fluoro-1-methyl-1H-indol-3-yl)-butyl]-methyl-(8-methyl-2,3-dihydro-[1,4]dioxino[2,3-f]quinolin-2-ylmethyl)-amine], in experiment [1], the IC50 was found to be 372 nM and the Emax came out at 100%. For the same molecule, at serotonin transporter, the Ki was found to be 3.4 nM. Moreover, on human 5-HT1A receptors, the Ki is 9.99 nM.
With `COc1ccc2[nH]cc(CCNCC3COc4ccc5nc(C)ccc5c4O3)c2c1` (centres unmarked) [Example 1], the IC50 in experiment [1] was 88.6 nM. Further, in experiment [1], the Emax stood at 80.3%. Besides, the Ki came to 31 nM on serotonin transporter and 2.03 nM on human 5-HT1A receptors.
Regarding `Cc1ccc2c3c(ccc2n1)OCC(CNCCCn1ccc2ccc(F)cc21)O3` (centres unmarked) [Example 33, [3-(6-Fluoro-indol-1-yl)-propyl]-(8-methyl-2,3-dihydro-[1,4]dioxino[2,3-f]quinolin-2-ylmethyl)amine], in experiment [1], the IC50 amounted to 200 nM and the Emax turned out to be 73.5%. For the same molecule, the Ki on serotonin transporter was determined as 2.2 nM. Also, the Ki on human 5-HT1A receptors was found to be 21.2 nM.
For `Cc1ccc2c3c(ccc2n1)OC[C@H](CNCCCc1coc2ccccc12)O3` [Example 18] the same measures were 10.4 nM, 59.3%, 6.6 nM and 0.35 nM.
As to `Cc1ccc2c3c(ccc2n1)OC[C@H](CNCCCCc1c[nH]c2ccc(C#N)cc12)O3` [Example 39, 3-{4-[(8-Methyl-2,3-dihydro-[1,4]dioxino[2,3-f]quinolin-2-ylmthyl)-amino]-butyl}-1H-indole-5-carbonitrile], the IC50 in experiment [1] was found to be 263 nM. In addition, the Emax in experiment [1] is 78.5%. Besides, the Ki is 0.5 nM on serotonin transporter and 0.85 nM on human 5-HT1A receptors.
Taken in the same sequence, the figures for `Fc1ccc2[nH]cc(CCCNC[C@H]3COc4ccc5ncccc5c4O3)c2c1` [Example 14, N-(2,3-Dihydro-[1,4]dioxino[2,3-f]quinolin-2-ylmthyl)-N-[3-(5-fluoro-1H-indol-3-yl)propyl]amine] were 507 nM, 100%, 1 nM and 1.03 nM.
Regarding `Cc1ccc2c3c(ccc2n1)OC[C@H](CNCCCCc1csc2ccc(Cl)cc12)O3` [Example 49], the IC50 in experiment [1] turned out to be 99 nM. Further, in experiment [1], the Emax amounted to 33%. In addition, the Ki at serotonin transporter turned out to be 23 nM; on human 5-HT1A receptors, 0.73 nM.

What is called IC50 is the concentration needed to halve the response being measured. For orientation: Ki means the dissociation constant of the complex between target and ligand, obtained from inhibition or displacement.
